Measurements as given in patent US8835472B2, “Compounds, pharmaceutical compositions and uses thereof” (Boehringer Ingelheim International GmbH, priority 2010, dated 2014).
pIC50: −log10 of the molar value.

Each molecule was assayed against human ACC2 (Homo sapiens (Human), UniProt O00763) (assay: ACC2 assay, spectrophotometric 384 well assay (NADH-linked, coupled lactate dehydrogenase/pyruvate kinase reaction)). Conditions: hACC2 construct lacking the 128 N-terminal amino acids; 25° C., 340 nm over 15 minutes.
human ACC2, sequence (O00763 129-2458): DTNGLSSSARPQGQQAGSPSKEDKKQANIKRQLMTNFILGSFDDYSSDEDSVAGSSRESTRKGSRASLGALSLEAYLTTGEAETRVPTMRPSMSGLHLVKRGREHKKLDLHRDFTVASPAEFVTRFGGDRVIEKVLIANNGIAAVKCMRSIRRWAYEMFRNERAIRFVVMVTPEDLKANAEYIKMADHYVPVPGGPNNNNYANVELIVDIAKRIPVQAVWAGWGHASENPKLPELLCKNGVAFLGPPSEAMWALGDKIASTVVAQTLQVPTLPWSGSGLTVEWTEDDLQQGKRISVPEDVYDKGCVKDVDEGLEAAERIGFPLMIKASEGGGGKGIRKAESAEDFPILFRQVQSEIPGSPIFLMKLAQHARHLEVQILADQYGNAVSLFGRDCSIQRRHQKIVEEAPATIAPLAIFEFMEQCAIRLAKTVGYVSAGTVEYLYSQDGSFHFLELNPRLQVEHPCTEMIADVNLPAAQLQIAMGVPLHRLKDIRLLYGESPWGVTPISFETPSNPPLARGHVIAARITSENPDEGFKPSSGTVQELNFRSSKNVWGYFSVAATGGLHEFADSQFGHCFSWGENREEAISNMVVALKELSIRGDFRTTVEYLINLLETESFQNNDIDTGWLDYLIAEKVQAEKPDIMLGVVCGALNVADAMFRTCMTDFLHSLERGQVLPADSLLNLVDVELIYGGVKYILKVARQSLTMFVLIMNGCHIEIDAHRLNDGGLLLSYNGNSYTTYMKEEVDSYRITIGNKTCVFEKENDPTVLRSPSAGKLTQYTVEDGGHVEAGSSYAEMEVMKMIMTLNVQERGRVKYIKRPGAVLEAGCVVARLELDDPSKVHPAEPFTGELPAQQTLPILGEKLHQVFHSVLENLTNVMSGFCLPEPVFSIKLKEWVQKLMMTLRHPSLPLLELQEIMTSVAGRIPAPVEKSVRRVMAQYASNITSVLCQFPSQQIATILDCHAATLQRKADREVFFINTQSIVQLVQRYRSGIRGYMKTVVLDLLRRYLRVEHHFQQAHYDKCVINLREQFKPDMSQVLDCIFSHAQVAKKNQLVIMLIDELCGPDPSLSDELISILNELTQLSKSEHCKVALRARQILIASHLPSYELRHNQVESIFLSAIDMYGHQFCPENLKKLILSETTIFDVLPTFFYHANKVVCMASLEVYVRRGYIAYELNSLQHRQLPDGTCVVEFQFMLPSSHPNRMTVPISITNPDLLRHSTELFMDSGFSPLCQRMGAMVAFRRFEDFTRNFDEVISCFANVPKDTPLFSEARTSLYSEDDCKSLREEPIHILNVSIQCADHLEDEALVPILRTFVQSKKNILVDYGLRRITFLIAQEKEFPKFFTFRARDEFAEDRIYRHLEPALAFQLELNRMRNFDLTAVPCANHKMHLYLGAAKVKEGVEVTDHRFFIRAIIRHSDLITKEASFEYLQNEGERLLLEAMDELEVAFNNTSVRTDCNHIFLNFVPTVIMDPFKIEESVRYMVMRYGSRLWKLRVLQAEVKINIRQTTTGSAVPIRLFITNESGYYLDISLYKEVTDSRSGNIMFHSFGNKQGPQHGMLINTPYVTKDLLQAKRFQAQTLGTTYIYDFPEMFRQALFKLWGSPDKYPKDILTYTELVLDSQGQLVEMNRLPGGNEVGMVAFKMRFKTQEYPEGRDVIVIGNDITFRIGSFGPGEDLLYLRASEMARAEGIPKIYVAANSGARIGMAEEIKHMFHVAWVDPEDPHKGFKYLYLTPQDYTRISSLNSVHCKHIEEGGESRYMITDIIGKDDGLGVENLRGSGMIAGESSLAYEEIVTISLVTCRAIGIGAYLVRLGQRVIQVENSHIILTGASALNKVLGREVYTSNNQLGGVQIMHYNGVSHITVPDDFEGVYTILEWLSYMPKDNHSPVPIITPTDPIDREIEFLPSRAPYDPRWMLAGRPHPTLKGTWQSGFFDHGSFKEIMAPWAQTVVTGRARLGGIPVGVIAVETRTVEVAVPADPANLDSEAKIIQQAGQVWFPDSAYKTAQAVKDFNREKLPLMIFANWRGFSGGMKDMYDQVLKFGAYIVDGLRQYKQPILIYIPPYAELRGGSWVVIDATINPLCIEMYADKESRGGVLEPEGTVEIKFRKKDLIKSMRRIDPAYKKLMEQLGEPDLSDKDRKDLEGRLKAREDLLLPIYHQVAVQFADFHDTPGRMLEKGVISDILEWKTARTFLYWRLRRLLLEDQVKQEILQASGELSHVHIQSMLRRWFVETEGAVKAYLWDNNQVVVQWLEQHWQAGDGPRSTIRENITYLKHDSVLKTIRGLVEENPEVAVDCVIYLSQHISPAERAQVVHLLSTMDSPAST
Format: biochemical
Method in brief: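 N-terminally truncated human ACC2 (lacking 128 residues) expressed in insect cells; coupled PK/LDH read-out of ADP as NADH loss at 340 nm, 15 min, 25 °C. Tris pH 7.5 with citrate and KHCO3; 200 μM acetyl-CoA, 500 μM ATP, 1% DMSO.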

| pIC50 | SMILES |
| --- | --- |
| 6.77 | CC(=O)NC(C)Cc1ccc(C#Cc2cnc(OCc3ccc(F)cc3)nc2)cc1 (stereo not drawn) [Example 12.55] |
| 6.66 | CC(=O)NC(C)Cc1ccc(C#Cc2cnc(N3CCCC3)nc2)cc1 (stereo not drawn) [Example 13.77] |
| 6.18 | CC(=O)NC(C)Cc1ccc(C#Cc2ccc3cc[nH]c3c2)cc1 (stereo not drawn) [Example 3.5] |
| 6.20 | COc1ccc(Oc2ncc(C#Cc3ccc(CC(C)NC(C)=O)cc3)cn2)cn1 (stereo not drawn) [Example 12.40] |
| 6.68 | CCC(C)Oc1ccc(C#Cc2ccc(CC(C)NC(=O)C3CC3)cc2)cc1 (stereo not drawn) [Example 14.46] |
| 6.16 | CC(=O)NC(C)Cc1ccc(C#Cc2ccc(OCc3cncs3)cc2)cc1 (stereo not drawn) [Example 9.28] |
| 5.85 | COC(=O)CNc1ncc(C#Cc2ccc(CC(C)NC(C)=O)cc2)cn1 (stereo not drawn) [Example 13.5] |
| 6.80 | CC(=O)NC(C)Cc1ccc(C#Cc2ccc(OC3CCOCC3)cc2)cc1 (stereo not drawn) [Example 9.12] |
| 6.49 | CC(=O)NC(C)Cc1ccc(C#Cc2ccc(OCC3CC3)nc2)cc1 (stereo not drawn) [Example 2.23] |
| 6.14 | CC(=O)NC(C)Cc1ccc(C#Cc2cnc(N3CCOCC3)nc2)cc1 (stereo not drawn) [Example 13.22] |
| 7.10 | CCCOc1ccc(C#Cc2ccc(CC(C)NC(=O)C3CC3)cc2)cc1 (stereo not drawn) [Example 14.40] |
| 6.96 | CC(=O)NC(C)Cc1ccc(C#Cc2cnc(NC3CCC3)nc2)cc1 (stereo not drawn) [Example 13.12] |
| 6.17 | CC(=O)NC(C)Cc1ccc(C#Cc2cnc(OCC(C)C)nc2)cc1 (stereo not drawn) [Example 12.11] |
| 6.40 | CC(=O)NC(C)Cc1ccc(C#Cc2ccnc(Oc3cncnc3)c2)cc1 (stereo not drawn) [Example 2.91] |
| 6.01 | COCCOc1cc(C#Cc2ccc(CC(C)NC(C)=O)cc2)ccn1 (stereo not drawn) [Example 20.1, N-(2-{4-[2-(2-Methoxy-ethoxy)-pyridin-4-ylethynyl]-phenyl}-1-methyl-ethyl)-acetamide; compound with trifluoro-acetic acid] |
| 5.80 | CC(=O)NC(C)Cc1ccc(C#Cc2ccc(-c3cnco3)cc2)cc1 (stereo not drawn) [Example 23.7] |
| 5.80 | CCOc1ccc(C#Cc2ccc(CC(C)NC(C)=O)cc2)nn1 (stereo not drawn) [Example 2.29] |
| 6.68 | CCC(C)N(C)c1ncc(C#Cc2ccc(CC(C)NC(C)=O)cc2)cn1 (stereo not drawn) [Example 13.21] |
| 6.20 | CC(=O)NC(C)Cc1ccc(C#Cc2cnc(OC3CCOC3)nc2)cc1 (stereo not drawn) [Example 12.10] |
| 5.30 | CC(=O)NC(C)Cc1ccc(C#Cc2cccc(C(=O)NCC3CC3)c2)cc1 (stereo not drawn) [Example 8.28] |
| 6.55 | CCOc1ccc(C#Cc2ccc(CC(C)NC(C)=O)cc2)cn1 (stereo not drawn) [Example 2.31] |
| 7.22 | CC(=O)NC(C)Cc1ccc(C#Cc2ccc(OCCC3CC3)cc2)cc1 (stereo not drawn) [Example 9.21] |

The remaining lines, values behind:

| SMILES | pIC50 |
| --- | --- |
| CCCCn1ccc(C#Cc2ccc(CC(C)NC(C)=O)cc2)cc1=O (stereo not drawn) [Example 2.85] | 5.96 |
| CC(=O)NC(C)Cc1ccc(C#Cc2ccc(OC(F)(F)F)cc2C#N)cc1 (stereo not drawn) [Example 2.10] | 5.12 |
| CC(C)COc1ccc(C#Cc2ccc([C@H](C)NC(=O)C3CC3)cc2)cc1 [Example 14.48] | 6.24 |
| CCCOc1ccc(C#Cc2ccc(C(C)CNC(=O)N(C)C)cc2)cc1 (stereo not drawn) [Example 33.1, 1,1-Dimethyl-3-{2-[4-(4-propoxy-phenylethynyl)-phenyl]-propyl}-urea] | 6.80 |
| CCOc1ccc(C#Cc2ccc(CC(C)NC(=O)CN(C)C)cc2)cc1 (stereo not drawn) [Example 4.10] | 5.96 |
| CCOc1ccc(C#Cc2ccc(CC(C)NC(=O)c3cnco3)cc2)cc1 (stereo not drawn) [Example 4.38] | 6.77 |
| COC(=O)NC(C)Cc1ccc(C#Cc2cnc(OC(C)C)nc2)cc1 (stereo not drawn) [Example 12.28] | 5.96 |
| CC(=O)NC(C)Cc1ccc(C#Cc2ccc(C(=O)NC(C)C)cc2)cc1 (stereo not drawn) [Example 8.20] | 5.36 |
| CC(=O)NC(C)Cc1ccc(C#Cc2cccc(C(=O)N(C)CCO)c2)cc1 (stereo not drawn) [Example 8.22] | 5.19 |
| COC(=O)NC(C)Cc1ccc(C#Cc2cnc(N3CCCCC3)nc2)cc1 (stereo not drawn) [Example 13.32] | 6.39 |
| CCOc1ccc(C#Cc2ccc(CC(C)NC(=O)CCO)cc2)cc1 (stereo not drawn) [Example 4.18] | 6.34 |
| CCCOc1ccc(C#Cc2ccc(C(C)NC(C)=O)cc2)c(OC)c1 (stereo not drawn) [Example 2.51] | 5.89 |
| CC(=O)N[C@@H](C)c1ccc(C#Cc2ccc(OCC(C)C)cc2)cc1 [Example 14.26] | 6.85 |
| CCC(COC)Oc1ccc(C#Cc2ccc(CC(C)NC(C)=O)cc2)cc1 (stereo not drawn) [Example 9.35] | 6.18 |
| CCOc1ccc(C#Cc2ccc(CC(C)NC(=O)CCOC)cc2)cc1 (stereo not drawn) [Example 4.11] | 5.85 |
| C[C@H](NC(=O)C1CC1)c1ccc(C#Cc2cnc(Oc3ccccc3)nc2)cc1 [Example 12.67] | 5.41 |
| CC(=O)NC(C)Cc1ccc(C#Cc2cccc(C(=O)N(C)C3CCCC3)c2)cc1 (stereo not drawn) [Example 8.33] | 5.70 |
| CC(=O)NC(C)Cc1ccc(C#Cc2cc(OCc3ccccc3)ncn2)cc1 (stereo not drawn) [Example 2.78] | 6.12 |

| SMILES | pIC50 |
| --- | --- |
| CCOc1ccc(C#Cc2ccc(CC(C)NC(=O)C(F)F)cc2)cc1 (stereo not drawn) [Example 4.26] | 6.64 |
| COC(=O)NC(C)Cc1ccc(C#Cc2cnc(Oc3ccccc3)nc2)cc1 (stereo not drawn) [Example 12.27] | 6.07 |
| CC(=O)N[C@@H](C)c1ccc(C#Cc2cnc(N3CC4CCCC4C3)nc2)cc1 (stereo partly drawn) [Example 13.93] | 6.57 |
| CCOc1ccc(C#Cc2ccc(CC(C)NC(=O)CC(C)C)cc2)cc1 (stereo not drawn) [Example 4.23] | 6.51 |
| CCOc1ncc(C#Cc2ccc([C@H](C)NC(C)=O)cc2)cn1 [Example 12.69] | 5.59 |
| CC(Cc1ccc(C#Cc2cnc(N3CC4CCCC4C3)nc2)cc1)NC(=O)C1CC1 (stereo not drawn) [Example 13.43] | 6.24 |
| CCCOc1cc(C#Cc2ccc([C@H](C)NC(C)=O)cc2)ccn1 [Example 14.24] | 6.70 |
| CC(=O)N[C@@H](C)c1ccc(C#Cc2cnc(OCc3ccccc3)nc2)cc1 [Example 12.60] | 6.27 |
| CC(=O)NC(C)Cc1ccc(C#Cc2cnc(Oc3ccc4cn[nH]c4c3)nc2)cc1 (stereo not drawn) [Example 12.39] | 5.49 |
| CC(=O)N[C@@H](C)c1ccc(C#Cc2cnc(OCCC(F)(F)F)nc2)cc1 [Example 12.64] | 6.26 |
| CC(Cc1ccc(C#Cc2cnc(NC3CC3)nc2)cc1)NC(=O)C1CC1 (stereo not drawn) [Example 13.48] | 5.89 |
| CCCNc1nccc(C#Cc2ccc(CC(C)NC(C)=O)cc2)n1 (stereo not drawn) [Example 11.3] | 5.64 |
| COc1ccccc1CNc1ncc(C#Cc2ccc(CC(C)NC(C)=O)cc2)cn1 (stereo not drawn) [Example 13.80] | 6.32 |
| CCOc1ccc(C#Cc2ccc(C(C)NC(=O)c3cn[nH]c3)cc2)cc1 (stereo not drawn) [Example 4.55] | 6.48 |
| CC(=O)NC(C)Cc1ccc(C#Cc2ccnc(N(C)CC3CCCCC3)n2)cc1 (stereo not drawn) [Example 11.23] | 6.43 |
| CCOc1ccc(C#Cc2ccc(CC(C)NC(=O)CCNC(C)=O)cc2)cc1 (stereo not drawn) [Example 4.70] | 5.89 |
| CC(=O)NC(C)c1ccc(C#Cc2ccc(OC3CCCC3)cc2)cc1 (stereo not drawn) [Example 2.52] | 6.72 |
